Emax and EC50 data for 25 compounds are collected here from patent publication US20250002507A1, “7,8-DIHYDRO-5H-1,6-NAPHTHYRIDINE DERIVATIVES AS POSITIVE ALLOSTERIC MODULATORS OF THE MUSCARINIC ACETYLCHOLINE RECEPTOR M4 FOR TREATING NEUROLOGICAL AND PSYCHIATRIC DISORDERS” (Vanderbilt University, priority 2021, published 2025).

pEC50: −log10 of the molar value. Read-outs that look alike come from different tables or passages of the source.

The target of the test is T1, Human M4 (Homo sapiens, UniProt P08173).
T1 construct: expressed in transfected cells
T1 sequence (P08173 1-479): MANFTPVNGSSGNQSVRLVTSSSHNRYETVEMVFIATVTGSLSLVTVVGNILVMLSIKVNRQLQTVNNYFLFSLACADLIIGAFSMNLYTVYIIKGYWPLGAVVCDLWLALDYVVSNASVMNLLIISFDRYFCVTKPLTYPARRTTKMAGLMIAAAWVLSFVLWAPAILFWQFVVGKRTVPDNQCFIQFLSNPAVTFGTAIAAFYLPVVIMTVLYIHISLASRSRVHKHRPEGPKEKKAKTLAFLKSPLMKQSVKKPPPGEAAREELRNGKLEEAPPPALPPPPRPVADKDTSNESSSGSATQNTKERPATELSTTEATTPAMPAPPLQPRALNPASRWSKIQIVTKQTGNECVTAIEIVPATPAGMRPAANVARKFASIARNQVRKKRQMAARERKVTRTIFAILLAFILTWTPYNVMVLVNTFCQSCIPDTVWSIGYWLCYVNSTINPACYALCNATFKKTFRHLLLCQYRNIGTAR
The test can be described thus: mAChR M4 cell-based functional assay (calcium flux, potentiation of EC20 acetylcholine response), hM4-Gqi5 CHO-K1 cells. To be noted: for Emax at 30 µM: CHO-K1, Human M4, % ACh maximum at 30 μM, read-out: Emax (% ACh maximum at 30 μM); for Emax: CHO-K1, read-out: Emax (% ACh maximum at 30 μM). The essentials: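 Positive allosteric modulation was scored as a concentration-dependent rise in the response to an EC20 dose of acetylcholine, added 144 s after the compound. Human M4-Gqi5 CHO-K1 cells carried Fluo-4 dye, and compounds ran as 11-point, 3-fold dilution series. EC50 and Emax came from four-parameter logistic fits of the FDSS fluorescence-ratio traces.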
In general terms: A change in cytosolic calcium serves as a functional read-out for many receptors and channels.

Setting [1] is: Table 3, potentiation of EC20 acetylcholine response, calcium flux, CHO-K1 cells, read-out: Human M4 EC50.

As usually defined, the Emax is the size of the effect at its maximum, as opposed to the concentration needed. The pEC50 is the EC50 on a negative log10 scale, so that one unit is a factor of ten. `Cc1ccccc1C(=O)Nc1cnc2c(c1)CN(c1nn3cnnc3c(C)c1C)CC2` [Compound 156, N-(6-(7,8-dimethyl-[1,2,4]triazolo[4,3-b]pyridazin-6-yl)-5,6,7,8-tetrahydro-1,6-naphthyridin-3-yl)-2-methylbenzamide]: under “Table 3”, the Emax at 30 µM is 70%. Further, the pEC50 under setting [1] was 5.38.

As to `Cc1cccc(C(=O)Nc2cnc3c(c2)CN(c2nn4cnnc4c(C)c2C)CC3)c1` [Compound 157, N-(6-(7,8-dimethyl-[1,2,4]triazolo[4,3-b]pyridazin-6-yl)-5,6,7,8-tetrahydro-1,6-naphthyridin-3-yl)-3-methylbenzamide], under “Table 3”, the Emax at 30 µM was found to be 96%. Further, the negative logarithm of the EC50 (pEC50) under setting [1] is 6.11.

With `Cc1c(N2CCc3ncc(NC(=O)c4ccc(F)cc4)cc3C2)nn2cnnc2c1C` [Compound 158, N-(6-(7,8-dimethyl-[1,2,4]triazolo[4,3-b]pyridazin-6-yl)-5,6,7,8-tetrahydro-1,6-naphthyridin-3-yl)-4-fluorobenzamide], under “Table 3”, the Emax at 30 µM came out at 79%. The pEC50 under setting [1] was 6.17.

As to `Cc1c(N2CCc3ncc(Oc4ccccc4F)cc3C2)nn2cnnc2c1C` [Compound 159, 6-(7,8-dimethyl-[1,2,4]triazolo[4,3-b]pyridazin-6-yl)-3-(2-fluorophenoxy)-5,6,7,8-tetrahydro-1,6-naphthyridine], the Emax at 30 µM (Table 3) was 109%. Under setting [1], the pEC50 is 6.97.

With `Cc1c(N2CCc3ncc(Oc4cccc(F)c4)cc3C2)nn2cnnc2c1C` [Compound 160, 6-(7,8-dimethyl-[1,2,4]triazolo[4,3-b]pyridazin-6-yl)-3-(3-fluorophenoxy)-5,6,7,8-tetrahydro-1,6-naphthyridine], the maximum response (Emax) at 30 µM (Table 3) was 111%. The pEC50 under setting [1] was 6.84.

With `COc1nc2c(cc1C)CN(c1nn3cnnc3c(C)c1C)CC2` [Compound 161, 6-(7,8-dimethyl-[1,2,4]triazolo[4,3-b]pyridazin-6-yl)-2-methoxy-3-methyl-5,6,7,8-tetrahydro-1,6-naphthyridine], the Emax at 30 µM (Table 3) came to 105%. Further, under setting [1], the pEC50 was 5.56.

`Cc1cnc2c(c1)CN(c1nn3cc(C(=O)N4CCOCC4)nc3cc1C)CC2` [Compound 162, (7-methyl-6-(3-methyl-7,8-dihydro-1,6-naphthyridin-6(5H)-yl)imidazo[1,2-b]pyridazin-2-yl)(morpholino)methanone]: the Emax at 30 µM (Table 3) stood at 105%. In addition, the pEC50 under setting [1] is 6.07.

On to `Cc1c(N2CCc3ncc(Nc4cnn(C)c4)cc3C2)nn2cnnc2c1C` [Compound 163, 6-(7,8-dimethyl-[1,2,4]triazolo[4,3-b]pyridazin-6-yl)-N-(1-methyl-1H-pyrazol-4-yl)-5,6,7,8-tetrahydro-1,6-naphthyridin-3-amine], for which the Emax at 30 µM (Table 3) was 107%. For the same compound, the pEC50 under setting [1] is 6.12.

On to `Cc1c(N2CCc3ncc(Nc4ccnn4C)cc3C2)nn2cnnc2c1C` [Compound 164, 6-(7,8-dimethyl-[1,2,4]triazolo[4,3-b]pyridazin-6-yl)-N-(1-methyl-1H-pyrazol-5-yl)-5,6,7,8-tetrahydro-1,6-naphthyridin-3-amine], for which the Emax at 30 µM (Table 3) was 109%. Under setting [1], the pEC50 is 6.82.

As for `CCC(C)(O)c1cnc2c(c1)CN(c1nn3cnnc3c(C)c1C)CC2` (centres unmarked) [Compound 165, 2-(6-(7,8-dimethyl-[1,2,4]triazolo[4,3-b]pyridazin-6-yl)-5,6,7,8-tetrahydro-1,6-naphthyridin-3-yl)butan-2-ol], the Emax at 30 µM (Table 3) came to 102%. Moreover, under setting [1], the pEC50 is 5.73.

Take `Cc1c(N2CCc3ncc(C(C)(O)C4CC4)cc3C2)nn2cnnc2c1C` (centres unmarked) [Compound 166, 1-cyclopropyl-1-(6-(7,8-dimethyl-[1,2,4]triazolo[4,3-b]pyridazin-6-yl)-5,6,7,8-tetrahydro-1,6-naphthyridin-3-yl)ethan-1-ol]: the Emax at 30 µM (Table 3) was 95%. The pEC50 under setting [1] is 5.73.

`Cc1cc2c(nc1C)CCN(c1nn3cnnc3c(C)c1C)C2` [Compound 167, 6-(7,8-dimethyl-[1,2,4]triazolo[4,3-b]pyridazin-6-yl)-2,3-dimethyl-5,6,7,8-tetrahydro-1,6-naphthyridine]: the Emax was 106%. Moreover, the pEC50 under setting [1] was 6.73.

`Cc1cnc2c(c1)CN(c1nn3cc(C(=O)NC4CC4)nc3cc1C)CC2` [Compound 168, N-cyclopropyl-7-methyl-6-(3-methyl-7,8-dihydro-1,6-naphthyridin-6(5H)-yl)imidazo[1,2-b]pyridazine-2-carboxamide]: for the setting “Table 3”, the Emax at 30 µM amounted to 54%. In addition, the negative-log EC50 (pEC50) under setting [1] is 5.49.

As to `Cc1cnc2c(c1)CN(c1nn3cc(C(=O)N4CCN(C)CC4)nc3cc1C)CC2` [Compound 169, (7-methyl-6-(3-methyl-7,8-dihydro-1,6-naphthyridin-6(5H)-yl)imidazo[1,2-b]pyridazin-2-yl)(4-methylpiperazin-1-yl)methanone], under “Table 3”, the Emax at 30 µM amounted to 111%. The pEC50 under setting [1] is 5.93.

For the compound `Cc1cnc2c(c1)CN(c1nn3cc(C(=O)N4CCCCC4)nc3cc1C)CC2` [Compound 170, (7-methyl-6-(3-methyl-7,8-dihydro-1,6-naphthyridin-6(5H)-yl)imidazo[1,2-b]pyridazin-2-yl)(piperidin-1-yl)methanone], the Emax at 30 µM (Table 3) stood at 105%. Moreover, the pEC50 under setting [1] is 6.03.

In the case of `Cc1cnc2c(c1)CN(c1nn3cc(C(=O)N4CCCC4)nc3cc1C)CC2` [Compound 171, [7-Methyl-6-(3-methyl-7,8-dihydro-5H-1,6-naphthyridin-6-yl)imidazo[1,2-b]pyridazin-2-yl]-pyrrolidin-1-yl-methanone], the Emax at 30 µM (Table 3) was found to be 107%. Also, the pEC50 under setting [1] was 5.98.

In the case of `Cc1c(N2CCc3ncc(-c4cccnc4C(F)(F)F)cc3C2)nn2cnnc2c1C` [Compound 172, 6-(7,8-dimethyl-[1,2,4]triazolo[4,3-b]pyridazin-6-yl)-3-(2-(trifluoromethyl)pyridin-3-yl)-5,6,7,8-tetrahydro-1,6-naphthyridine], under “Table 3”, the Emax at 30 µM is 73%. Further, the negative logarithm of the EC50 (pEC50) under setting [1] is 5.45.

As for `COc1ncc(-c2cnc3c(c2)CN(c2nn4cnnc4c(C)c2C)CC3)cc1Cl` [Compound 173, 3-(5-chloro-6-methoxypyridin-3-yl)-6-(7,8-dimethyl-[1,2,4]triazolo[4,3-b]pyridazin-6-yl)-5,6,7,8-tetrahydro-1,6-naphthyridine], the Emax at 30 µM (Table 3) stood at 80%. Also, the pEC50 under setting [1] is 6.03.

Regarding `COc1nc(Cl)ccc1-c1cnc2c(c1)CN(c1nn3cnnc3c(C)c1C)CC2` [Compound 174, 3-(6-chloro-2-methoxypyridin-3-yl)-6-(7,8-dimethyl-[1,2,4]triazolo[4,3-b]pyridazin-6-yl)-5,6,7,8-tetrahydro-1,6-naphthyridine], the Emax at 30 µM (Table 3) worked out at 85%. For the same compound, under setting [1], the pEC50 was 5.97.

`CCc1ccncc1-c1cnc2c(c1)CN(c1nn3cnnc3c(C)c1C)CC2` [Compound 175, 6-(7,8-dimethyl-[1,2,4]triazolo[4,3-b]pyridazin-6-yl)-3-(4-ethylpyridin-3-yl)-5,6,7,8-tetrahydro-1,6-naphthyridine]: the Emax at 30 µM (Table 3) amounted to 81%. Further, under setting [1], the pEC50 was 6.81.

`COc1ncc(-c2cnc3c(c2)CN(c2nn4cnnc4c(C)c2C)CC3)cc1F` [Compound 176, 6-(7,8-dimethyl-[1,2,4]triazolo[4,3-b]pyridazin-6-yl)-3-(5-fluoro-6-methoxypyridin-3-yl)-5,6,7,8-tetrahydro-1,6-naphthyridine]: the pEC50 is 6.23 and the Emax amounted to 89%.

As for `Cc1c(N2CCc3ncc(-c4cnc(Cl)c(F)c4)cc3C2)nn2cnnc2c1C` [Compound 177, 3-(6-chloro-5-fluoropyridin-3-yl)-6-(7,8-dimethyl-[1,2,4]triazolo[4,3-b]pyridazin-6-yl)-5,6,7,8-tetrahydro-1,6-naphthyridine], the Emax at 30 µM (Table 3) was found to be 85%. Moreover, under setting [1], the pEC50 is 6.13.

As to `COc1cnc(Cl)c(-c2cnc3c(c2)CN(c2nn4cnnc4c(C)c2C)CC3)c1` [Compound 178, 3-(2-chloro-5-methoxypyridin-3-yl)-6-(7,8-dimethyl-[1,2,4]triazolo[4,3-b]pyridazin-6-yl)-5,6,7,8-tetrahydro-1,6-naphthyridine], the Emax at 30 µM (Table 3) was 85%. The pEC50 under setting [1] was 6.24.

Regarding `COc1ncc(F)cc1-c1cnc2c(c1)CN(c1nn3cnnc3c(C)c1C)CC2` [Compound 179, 6-(7,8-dimethyl-[1,2,4]triazolo[4,3-b]pyridazin-6-yl)-3-(5-fluoro-2-methoxypyridin-3-yl)-5,6,7,8-tetrahydro-1,6-naphthyridine], the Emax at 30 µM (Table 3) was 84%. Also, the pEC50 under setting [1] was 6.04.

For the compound `Cc1c(N2CCc3ncc(-c4ccc(N(C)C)nc4)cc3C2)nn2cnnc2c1C` [Compound 180, 5-(6-(7,8-dimethyl-[1,2,4]triazolo[4,3-b]pyridazin-6-yl)-5,6,7,8-tetrahydro-1,6-naphthyridin-3-yl)-N,N-dimethylpyridin-2-amine], the Emax at 30 µM (Table 3) came out at 74%. Also, under setting [1], the pEC50 is 6.55.
